From patent US20080260716A1, “Method and Composition for High Level Disinfection Employing Quaternary Ammonium Compounds” (priority 2004, published 2008)
Where two headings read alike, the source gives them in different places.

Tests used:
C. sporogens spores = experiment: AOAC sporicidal test, kill time; format: cell-based; conditions: 50° C.
Mycobacterium terrae = experiment: AOAC tuberculocidal test, kill time; format: cell-based; conditions: for Kill Time M. terrae: tests 7.1-7.4, 1% of the quat, 50° C.
From the text: These standards are based on the known or possible risk of contamination of a particular medical device by a particular micro-organism, the pathogenic nature of the organism and other principles in infection control. […] The test panels and criteria are different for “low”, “intermediate” or “high-level disinfection”. These terms are herein used in accordance with current Food and Drug Administration (“FDA”) criteria for levels of disinfection which are detailed in Premarket Notification [510(k)] Submissions for Liquid Chemical Sterilants and High Level Disinfectants FDA 1997: “A germicide that inactivates all microbial pathogens except large number of bacterial endospores when used according to labelling”. In brief, the FDA regulatory requirement for high level disinfectants includes as the most challenging test a 100% kill of Mycobacterium tuberculosis var. bovis (or a specific strain of a suitable surrogate, such as Mycobacterium terrae) in 400 p.p.m. hard water in the presence of 2% horse serum in a quantitative tuberculocidal test.
In the following tables unless otherwise specified references to “kill time” mean the time required to achieve complete kill as defined in the relevant AOAC test (more particularly identified in annexure 1). “No kill” means less than 2 log reduction from the initial population. Unless otherwise specified “QUAT” is benzalkonium chloride, specifically Gardiquat NC-50 (Albright & Wilson). Test points for vegetative bacteria (M. terrae) were 2, 5, 10, 20 and 60 mins. Test points for spores were 0.5, 1, 2, 4, 16, 24, 48 hours. The last column in each table indicates whether the tested combination satisfies the FDA requirement for high level disinfection (“HLD”) or fails to do so (“F”).
AOAC tests for determination of High level Disinfection as defined in current FDA criteria (detailed in “Premarket Notification [510(k)] Submissions for Liquid Chemical Sterilants and High Level Disinfectants FDA 1993”.):
AOAC Tuberculocidal Activity of Disinfectants
AOAC Ref No 965.12, AOAC Official Methods of Analysis (1995)

B. subtilis spores = experiment: AOAC sporicidal test, kill time; format: cell-based; conditions: 50° C.
[1] = system: Mycobacterium terrae, B. subtilis, C. sporogens; design: key: satisfies the FDA requirement for high level disinfection (“HLD”); fails to do so (“F”)
[2] = 30 min, 20° C. (Sporox); cited from earlier work
[3] = tests 7.1-7.4, 1% of the quat, 50° C.

| Molecule | Kill Time M. terrae (Mycobacterium terrae) | HLD or F [1, 3] | Kill Time C. sporogens (C. sporogens spores; tests 7.2-7.4, 1% of the quat) | Kill Time B. subtilis (B. subtilis spores; tests 7.2-7.4, 1% of the quat) | other results |
| --- | --- | --- | --- | --- | --- |
| CCCCCCCCCC[N+](C)(C)CCCCCCCCCC.[Cl-] [Quat(1), Didecyl Dimethyl Ammonium Chloride] | <10 min | HLD | – | – | Kill Time C. sporogens (C. sporogens spores; test 7.1, 1% Quat(1)): <2 h; Kill Time B. subtilis (B. subtilis spores; test 7.1, 1% Quat(1)): <2 h |
| CCCCCCCC[N+](C)(C)CCCCCCCC.[Cl-] [Quat(2), Dioctyl Dimethyl Ammonium Chloride] | <10 min | HLD | <2 h | <2 h | – |
| CC(C)(C)CC(C)(C)c1ccc(OCCOCC[N+](C)(C)Cc2ccccc2)cc1 [benzethonium chloride, reference compound] | – | – | – | – | effectiveness against Mycobacterium (Mycobacterium terrae; 0.25%, temperatures above 60° C., with ultrasound): not effective; HLD or F ([1]; test 1.3, 0.25% benzethonium chloride, 0.25% Triton X-100, 5% isopropanol, 62° C. + ultrasound 20 min/hr): F |
| OO [peroxide, hydrogen peroxide] | – | – | – | – | minimum effective concentration for high-level disinfection [2]: 6.0% |
| N-Alkyl Dimethyl Ammonium Chloride [Quat(3)] | <10 min | HLD | <2 h | <2 h | – |
